What is called inhibition is the relative decrease from the control value, in per cent.

This assay has as its system Store Operated Calcium Entry (SOCE) in BV-2 cells. In words: Fluo-4 fluorimetric assay of tBHQ-induced store operated calcium entry in BV-2 cells. In kind it is cell-based, mouse. To be noted: Mus musculus, 10 μM, SOCE inhibition based on tBHQ-induced calcium influx. As for the experimental part:
(A) BV-2 cells were plated in poly-d-lysine coated 24-well plate and incubated overnight. After 24 hours, cells were loaded with 2 μM Fluo-4 and placed in an extracellular solution containing 0 mM Ca^2+. Stores were depleted with 50 μM tBHQ and calcium influx was stimulated by the addition of 2 mM Ca^2+ alone (Ctrl), or in conbination with: compound with no activity (NM-3A), and compounds that positively (4-(1-(4-(3,5-bis(trifluoromethyl)-1H-pyrazol-1-yl)phenyl)-1H-1,2,3-triazol-4-yl)benzoic acid) and negatively (3-(1-(4-(4-(ethoxycarbonyl)-5-(trifluoromethyl)-1H-pyrazol-1-yl)phenyl)-1H-1,2,3-triazol-4-yl)benzoic acid) regulate SOCE. Calcium responses are expressed as changes in fluorescence intensity before and after the addition of selected modulators. (B) BV-2 cells were assayed for a calcium response to different concentrations of 3-(1-(4-(4-(ethoxycarbonyl)-5-(trifluoromethyl)-1H-pyrazol-1-yl)phenyl)-1H-1,2,3-triazol-4-yl)benzoic acid and 4-(1-(4-(3,5-bis(trifluoromethyl)-1H-pyrazol-1-yl)phenyl)-1H-1,2,3-triazol-4-yl)benzoic acid (0.1-0.3-1-3-10-30-100 μM) using Fluo-4 fluorimetric assay. Concentration-response curves represent the AUC % of both compounds as compared to positive control.
Immortalized primary mouse microglial BV-2 cells were obtained from ATCC (ATCC® CRL-2540™, Rockville, Md., USA) and were cultured in Dulbecco's Modified Eagle's Medium (DMEM; Sigma-Aldrich, Italy), supplemented with 10% heat-inactivated FBS (Gibco, Italy), 1-glutamine 50 mg/mL (Sigma-Aldrich, Italy), penicillin 10 U/mL and streptomycin […] (Sigma-Aldrich, Italy) at 37° C., under a 5% CO2 humidified atmosphere. For experiments, the cells were plated 2×10^4 per ml in 24 well plates) or onto glass coverslips at concentrations of 4×10^4 per mL (24 mm diame-ter coverslips in 6 well plates).
BV-2 cells were loaded with 5 μM Fluo-4 AM in presence of 0.02% of Pluronic-127 (both from Life Technologies, Italy) and 10 μM sulfinpyrazone in Krebs-Ringer buffer (KRB, 135 mM NaCl, 5 mM KCl, 0.4 mM KH2PO4, 1 mM MgSO4, 5.5 mM glucose, 20 mM HEPES, pH 7.4) containing 2 mM CaCl2 (30 min, room temperature). Subsequently, cells were washed and incubated with KRB for other 30 min to allow de-esterification of Fluo-4 AM. Experiments were carried out prior to and during exposure of the cells to the Ca^2+-free solution. In the absence of Ca^2+, the intracellular Ca^2+ stores were depleted by 2,5-t-butylhydroquinone (tBHQ, 50 μM; Sigma-Aldrich, Italy), a SERCA poison, and then calcium 2 mM was re-added to the extracellular solution. Fluorescence is then monitored sequentially for a second in each well for 600 seconds with excitation at 494 nm and an emission wavelength at 516 nm on the V3 Victor plate-reader (Perkin Elmer), generating time-curves for each well. Data were analysed using Microsoft Excel and GraphPad Prism.
The percentage of SOCE inhibition for each compound was determined based on value of tBHQ-induced calcium influx into BV-2 cells (Table 2).
For the compound `FC(F)(F)c1cc(C(F)(F)F)n(-c2ccc(-n3cc(-c4ccccc4)nn3)cc2)n1` [1-(4-(3,5-bis(trifluoromethyl)-1H-pyrazol-1-yl)phenyl)-4-phenyl-1H-1,2,3-triazole], the inhibition at 10 µM is 0.84%.

With `Oc1cccc(-c2cn(-c3ccc(-n4nc(C(F)(F)F)cc4C(F)(F)F)cc3)nn2)c1` [3-(1-(4-(3,5-bis(trifluoromethyl)-1H-pyrazol-1-yl)phenyl)-1H-1,2,3-triazol-4-yl)phenol], the inhibition at 10 µM was 4.06%.

With `CCCC(C)OC(=O)c1cnn(-c2ccc(-n3cc(-c4cccc(C(=O)O)c4)nn3)cc2)c1C(F)(F)F` (stereo not shown) [3-(1-(4-(4-((pentan-2-yloxy)carbonyl)-5-(trifluoromethyl)-1H-pyrazol-1-yl)phenyl)-1H-1,2,3-triazol-4-yl)benzoic acid], the inhibition at 10 µM turned out to be 91.9%.

Consider `O=C(O)CCCc1cn(-c2ccc(-n3nc(C(F)(F)F)cc3C(F)(F)F)cc2)nn1` [4-(1-(4-(3,5-bis(trifluoromethyl)-1H-pyrazol-1-yl)phenyl)-1H-1,2,3-triazol-4-yl)butanoic acid], for which the inhibition at 10 µM came out at 19.9%.

Take `COc1ccc(-n2cc(-c3ccc(-n4nc(C(F)(F)F)cc4C(F)(F)F)cc3)nn2)cc1OC` [4-(4-(3,5-bis(trifluoromethyl)-1H-pyrazol-1-yl)phenyl)-1-(3,4-dimethoxyphenyl)-1H-1,2,3-triazole]: the inhibition at 10 µM turned out to be 5.7%.

Regarding `COc1ccc(-n2cc(-c3ccc(-n4nc(C(F)(F)F)cc4C(F)(F)F)cc3)nn2)cc1` [4-(4-(3,5-bis(trifluoromethyl)-1H-pyrazol-1-yl)phenyl)-1-(4-methoxyphenyl)-1H-1,2,3-triazole], the inhibition at 10 µM was 21.3%.

For the compound `O=C(O)CCCn1cc(-c2ccc(-n3nc(C(F)(F)F)cc3C(F)(F)F)cc2)nn1` [4-(4-(4-(3,5-bis(trifluoromethyl)-1H-pyrazol-1-yl)phenyl)-1H-1,2,3-triazol-1-yl)butanoic acid], the inhibition at 10 µM worked out at 18.3%.

Turning to `CCOC(=O)c1cnn(-c2ccc(-c3cn(-c4ccc(C(=O)O)cc4)nn3)cc2)c1C(F)(F)F` [4-(4-(4-(4-(ethoxycarbonyl)-5-(trifluoromethyl)-1H-pyrazol-1-yl)phenyl)-1H-1,2,3-triazol-1-yl)benzoic acid], the inhibition at 10 µM stood at 19.8%.

In the case of `CCOC(=O)c1cnn(-c2ccc(-c3cn(-c4ccc(OC)c(OC)c4)nn3)cc2)c1C(F)(F)F` [ethyl 1-(4-(1-(3,4-dimethoxyphenyl)-1H-1,2,3-triazol-4-yl)phenyl)-5-(trifluoromethyl)-1H-pyrazole-4-carboxylate], the inhibition at 10 µM is 12.8%.

As to `CCOC(=O)c1cnn(-c2ccc(-c3cn(-c4cccc(N)c4)nn3)cc2)c1C(F)(F)F` [ethyl 1-(4-(1-(3-aminophenyl)-1H-1,2,3-triazol-4-yl)phenyl)-5-(trifluoromethyl)-1H-pyrazole-4-carboxylate], the inhibition at 10 µM was found to be 23%.

`CCOC(=O)c1cnn(-c2ccc(-c3cn(-c4ccc(OC)cc4)nn3)cc2)c1C(F)(F)F` [ethyl 1-(4-(1-(4-methoxyphenyl)-1H-1,2,3-triazol-4-yl)phenyl)-5-(trifluoromethyl)-1H-pyrazole-4-carboxylate]: the inhibition at 10 µM is 16.9%.

On to `CCOC(=O)c1cnn(-c2ccc(-c3cn(-c4cccnc4)nn3)cc2)c1C(F)(F)F` [ethyl 1-(4-(1-(pyridin-3-yl)-1H-1,2,3-triazol-4-yl)phenyl)-5-(trifluoromethyl)-1H-pyrazole-4-carboxylate], for which the inhibition at 10 µM was 37.4%.

As to `CCOC(=O)c1cnn(-c2ccc(-c3cn(-c4ccncc4)nn3)cc2)c1C(F)(F)F` [ethyl 1-(4-(1-(pyridin-4-yl)-1H-1,2,3-triazol-4-yl)phenyl)-5-(trifluoromethyl)-1H-pyrazole-4-carboxylate], the inhibition at 10 µM stood at 20%.

In the case of `CCOC(=O)c1cnn(-c2ccc(-n3cc(-c4ccccc4NC(C)=O)nn3)cc2)c1C(F)(F)F` [ethyl 1-(4-(4-(2-acetamidophenyl)-1H-1,2,3-triazol-1-yl)phenyl)-5-(trifluoromethyl)-1H-pyrazole-4-carboxylate], the inhibition at 10 µM turned out to be 28%.

Turning to `CCOC(=O)c1cnn(-c2ccc(-n3cc(-c4ccc(OC)c(OC)c4)nn3)cc2)c1C(F)(F)F` [ethyl 1-(4-(4-(3,4-dimethoxyphenyl)-1H-1,2,3-triazol-1-yl)phenyl)-5-(trifluoromethyl)-1H-pyrazole-4-carboxylate], the inhibition at 10 µM was 17.2%.

As for `CCOC(=O)c1cnn(-c2ccc(-n3cc(-c4cccc(C(=O)OC)c4)nn3)cc2)c1C(F)(F)F` [ethyl 1-(4-(4-(3-(methoxycarbonyl)phenyl)-1H-1,2,3-triazol-1-yl)phenyl)-5-(trifluoromethyl)-1H-pyrazole-4-carboxylate], the inhibition at 10 µM came out at 21.8%.

In the case of `CCOC(=O)c1cnn(-c2ccc(-n3cc(-c4cccc(N)c4)nn3)cc2)c1C(F)(F)F` [ethyl 1-(4-(4-(3-aminophenyl)-1H-1,2,3-triazol-1-yl)phenyl)-5-(trifluoromethyl)-1H-pyrazole-4-carboxylate], the inhibition at 10 µM is 24.8%.

With `CCOC(=O)c1cnn(-c2ccc(-n3cc(-c4cccc(C(N)=O)c4)nn3)cc2)c1C(F)(F)F` [ethyl 1-(4-(4-(3-carbamoylphenyl)-1H-1,2,3-triazol-1-yl)phenyl)-5-(trifluoromethyl)-1H-pyrazole-4-carboxylate], the inhibition at 10 µM turned out to be 2.27%.

`CCOC(=O)c1cnn(-c2ccc(-n3cc(-c4cccc(O)c4)nn3)cc2)c1C(F)(F)F` [ethyl 1-(4-(4-(3-hydroxyphenyl)-1H-1,2,3-triazol-1-yl)phenyl)-5-(trifluoromethyl)-1H-pyrazole-4-carboxylate]: the inhibition at 10 µM is 3.53%.

As for `CCOC(=O)c1cnn(-c2ccc(-n3cc(-c4ccc(N)cc4)nn3)cc2)c1C(F)(F)F` [ethyl 1-(4-(4-(4-aminophenyl)-1H-1,2,3-triazol-1-yl)phenyl)-5-(trifluoromethyl)-1H-pyrazole-4-carboxylate], the inhibition at 10 µM came to 8.31%.

Consider `CCOC(=O)c1cnn(-c2ccc(-n3cc(-c4ccc(OC)cc4)nn3)cc2)c1C(F)(F)F` [ethyl 1-(4-(4-(4-methoxyphenyl)-1H-1,2,3-triazol-1-yl)phenyl)-5-(trifluoromethyl)-1H-pyrazole-4-carboxylate], for which the inhibition at 10 µM came to 4.77%.

For the compound `CCOC(=O)c1cnn(-c2ccc(-n3cc(-c4ccccc4)nn3)cc2)c1C(F)(F)F` [ethyl 1-(4-(4-phenyl-1H-1,2,3-triazol-1-yl)phenyl)-5-(trifluoromethyl)-1H-pyrazole-4-carboxylate], the inhibition at 10 µM worked out at 14.3%.
